# Measured values published in ChEMBL document CHEMBL6127154, “Pursuing Polypharmacology: Benzothiopyranoindoles as G-Quadruplex Stabilizers and Topoisomerase I Inhibitors for Effective Anticancer Strategies” (ACS Med Chem Lett, 2024).
# The source made the active and inactive calls. No cut-off for these calls is given here.
# Columns and labels:
# Quadruplex DNA [1] = test: Thermal stabilization of human Tel26-hy G4 quadruplex DNA assessed as change in melting temperature (deltaT1/2) incubated for 10 mins by circular dichroism spectroscopic analysis (reference value: 55.4 +/- 0.1 degreeC); assay type: nucleic-acid assay
# ACHN = test: Antiproliferative activity against human ACHN cells assessed as growth inhibition incubated for 48 hrs by SRB assay; assay type: functional
# A549 = test: Antiproliferative activity against human A549 cells assessed as growth inhibition incubated for 48 hrs by SRB assay; assay type: functional
# HCT-116 [2] = test: Induction of DNA damage in human HCT-116 cells assessed as increase in gammaH2AX level incubated for 24 hrs by immunofluorescence staining based analysis; assay type: functional, cell-based
# SK-MEL-2 = test: Antiproliferative activity against human SK-MEL-2 cells assessed as growth inhibition incubated for 48 hrs by SRB assay; assay type: functional
# OVCAR-8 = test: Antiproliferative activity against human OVCAR-8 cells assessed as growth inhibition incubated for 48 hrs by SRB assay; assay type: functional
# RXF 393 = test: Antiproliferative activity against human RXF 393 cells assessed as growth inhibition incubated for 48 hrs by SRB assay; assay type: functional
# UO-31 = test: Antiproliferative activity against human UO-31 cells assessed as growth inhibition incubated for 48 hrs by SRB assay; assay type: functional
# SNB-75 = test: Antiproliferative activity against human SNB-75 cells assessed as growth inhibition incubated for 48 hrs by SRB assay; assay type: functional
# HCT-116 [3] = test: Induction of DNA damage in human HCT-116 cells assessed as increase in 53BP1 foci positive cells incubated for 24 hrs by immunofluorescence staining based analysis; assay type: functional, cell-based
# SK-MEL-28 = test: Antiproliferative activity against human SK-MEL-28 cells assessed as growth inhibition incubated for 48 hrs by SRB assay; assay type: functional
# UACC-257 = test: Antiproliferative activity against human UACC-257 cells assessed as growth inhibition incubated for 48 hrs by SRB assay; assay type: functional
# NCI/ADR-RES = test: Antiproliferative activity against human NCI/ADR-RES cells assessed as growth inhibition incubated for 48 hrs by SRB assay; assay type: functional
# OVCAR-3 = test: Antiproliferative activity against human OVCAR-3 cells assessed as growth inhibition incubated for 48 hrs by SRB assay; assay type: functional
# NCI-H23 = test: Antiproliferative activity against human NCI-H23 cells assessed as growth inhibition incubated for 48 hrs by SRB assay; assay type: functional
# SN12C = test: Antiproliferative activity against human SN12C cells assessed as growth inhibition incubated for 48 hrs by SRB assay; assay type: functional
# Malme-3M = test: Antiproliferative activity against human Malme-3M cells assessed as growth inhibition incubated for 48 hrs by SRB assay; assay type: functional
# MCF7 = test: Antiproliferative activity against human MCF7 cells assessed as growth inhibition incubated for 48 hrs by SRB assay; assay type: functional
# HCT-15 = test: Antiproliferative activity against human HCT-15 cells assessed as growth inhibition incubated for 48 hrs by SRB assay; assay type: functional
# COLO 205 = test: Antiproliferative activity against human COLO 205 cells assessed as growth inhibition incubated for 48 hrs by SRB assay; assay type: functional
# MDA-MB-435 = test: Antiproliferative activity against human MDA-MB-435 cells assessed as growth inhibition incubated for 48 hrs by SRB assay; assay type: functional
# SF-268 = test: Antiproliferative activity against human SF-268 cells assessed as growth inhibition incubated for 48 hrs by SRB assay; assay type: functional
# CAKI-1 = test: Antiproliferative activity against human CAKI-1 cells assessed as growth inhibition incubated for 48 hrs by SRB assay; assay type: functional
# EKVX = test: Antiproliferative activity against human EKVX cells assessed as growth inhibition incubated for 48 hrs by SRB assay; assay type: functional
# Quadruplex DNA [4] = test: Stabilization of human telomeric 26 hybrid G4 quadruplex DNA incubated for 10 mins by circular dichroism spectroscopic analysis; assay type: nucleic-acid assay
# Quadruplex DNA [5] = test: Thermal stabilization of human Tel23-hy G4 quadruplex DNA assessed as change in melting temperature (deltaT1/2) incubated for 10 mins by circular dichroism spectroscopic analysis (reference value: 48 +/- 0.1 degreeC); assay type: nucleic-acid assay
# SR = test: Antiproliferative activity against human SR cells assessed as growth inhibition incubated for 48 hrs by SRB assay; assay type: functional
# MOLT-4 = test: Antiproliferative activity against human MOLT-4 cells assessed as growth inhibition incubated for 48 hrs by SRB assay; assay type: functional
# NCI-H226 = test: Antiproliferative activity against human NCI-H226 cells assessed as growth inhibition incubated for 48 hrs by SRB assay; assay type: functional
# NCI-H460 = test: Antiproliferative activity against human NCI-H460 cells assessed as growth inhibition incubated for 48 hrs by SRB assay; assay type: functional
# KM12 = test: Antiproliferative activity against human KM12 cells assessed as growth inhibition incubated for 48 hrs by SRB assay; assay type: functional
# OVCAR-5 = test: Antiproliferative activity against human OVCAR-5 cells assessed as growth inhibition incubated for 48 hrs by SRB assay; assay type: functional
# IGROV-1 = test: Antiproliferative activity against human IGROV-1 cells assessed as growth inhibition incubated for 48 hrs by SRB assay; assay type: functional
# UACC-62 = test: Antiproliferative activity against human UACC-62 cells assessed as growth inhibition incubated for 48 hrs by SRB assay; assay type: functional
# T47D = test: Antiproliferative activity against human T47D cells assessed as growth inhibition incubated for 48 hrs by SRB assay; assay type: functional
# SF-295 = test: Antiproliferative activity against human SF-295 cells assessed as growth inhibition incubated for 48 hrs by SRB assay; assay type: functional
# BT-549 = test: Antiproliferative activity against human BT-549 cells assessed as growth inhibition incubated for 48 hrs by SRB assay; assay type: functional
# PC-3 = test: Antiproliferative activity against human PC-3 cells assessed as growth inhibition incubated for 48 hrs by SRB assay; assay type: functional
# OVCAR-4 = test: Antiproliferative activity against human OVCAR-4 cells assessed as growth inhibition incubated for 48 hrs by SRB assay; assay type: functional
# A498 = test: Antiproliferative activity against human A498 cells assessed as growth inhibition incubated for 48 hrs by SRB assay; assay type: functional
# 786-0 = test: Antiproliferative activity against human 786-0 cells assessed as growth inhibition incubated for 48 hrs by SRB assay; assay type: functional
# SK-MEL-5 = test: Antiproliferative activity against human SK-MEL-5 cells assessed as growth inhibition incubated for 48 hrs by SRB assay; assay type: functional
# HCT-116 [6] = test: Antiproliferative activity against human HCT-116 cells assessed as growth inhibition incubated for 48 hrs by SRB assay; assay type: functional
# LOX IMVI = test: Antiproliferative activity against human LOX IMVI cells assessed as growth inhibition incubated for 48 hrs by SRB assay; assay type: functional
# Quadruplex DNA [7] = test: Thermal stabilization of human Tel23-p G4 quadruplex DNA assessed as change in melting temperature (deltaT1/2) incubated for 10 mins by circular dichroism spectroscopic analysis (reference value: 68.2 +/- 0.1 degreeC); assay type: nucleic-acid assay
# [8] = molecular target: DNA topoisomerase 1 (Homo sapiens) (UniProt P11387); test: Inhibition of human Topoisomerase 1 assessed as relaxation of supercoiled plasmid pBR322 DNA at 2.5 uM incubated for 1 hr by ethidium bromide staining based agarose gel electrophoresis
# Sequence of DNA topoisomerase 1 (Homo sapiens) (P11387 whole entry): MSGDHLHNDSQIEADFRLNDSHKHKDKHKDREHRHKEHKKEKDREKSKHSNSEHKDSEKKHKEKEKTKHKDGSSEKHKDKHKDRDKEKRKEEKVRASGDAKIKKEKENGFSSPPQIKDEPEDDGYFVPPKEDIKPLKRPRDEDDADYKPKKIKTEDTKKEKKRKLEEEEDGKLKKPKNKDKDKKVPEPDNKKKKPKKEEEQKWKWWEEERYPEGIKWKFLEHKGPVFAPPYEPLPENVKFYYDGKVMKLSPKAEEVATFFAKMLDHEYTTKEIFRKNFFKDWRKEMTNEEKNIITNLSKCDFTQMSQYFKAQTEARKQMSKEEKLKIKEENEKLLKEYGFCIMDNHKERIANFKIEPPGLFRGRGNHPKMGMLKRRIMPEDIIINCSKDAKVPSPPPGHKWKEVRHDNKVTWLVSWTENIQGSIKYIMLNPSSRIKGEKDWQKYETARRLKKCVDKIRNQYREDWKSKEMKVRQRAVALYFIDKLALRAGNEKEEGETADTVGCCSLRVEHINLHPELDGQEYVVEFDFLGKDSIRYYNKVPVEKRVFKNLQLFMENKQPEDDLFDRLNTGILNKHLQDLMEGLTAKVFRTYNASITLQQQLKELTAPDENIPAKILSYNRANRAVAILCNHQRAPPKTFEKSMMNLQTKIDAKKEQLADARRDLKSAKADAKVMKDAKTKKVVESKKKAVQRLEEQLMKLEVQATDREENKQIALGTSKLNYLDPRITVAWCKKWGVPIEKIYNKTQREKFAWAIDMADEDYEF
compound,measurement,setting,value
CCN(CC)CCn1c2ccc(OC)cc2c2sc3cc(OC)ccc3c(=O)c21,ΔTm,Quadruplex DNA [1],10.4 °C
same,GI,ACHN,1 µM
same,GI,A549,1.59 µM
same,Activity,HCT-116 [2],Active
same,GI,SK-MEL-2,2.1 µM
same,GI,OVCAR-8,1.93 µM
same,GI,RXF 393,1.4 µM
same,GI,UO-31,1.35 µM
same,GI,SNB-75,1.11 µM
same,Activity,HCT-116 [3],Active
same,GI,SK-MEL-28,1.7 µM
same,GI,UACC-257,1.92 µM
same,GI,NCI/ADR-RES,1.24 µM
same,GI,OVCAR-3,2.12 µM
same,GI,NCI-H23,1.9 µM
same,GI,SN12C,2.03 µM
same,GI,Malme-3M,1.59 µM
same,GI,MCF7,1.16 µM
same,GI,HCT-15,0.861 µM
same,GI,COLO 205,1.39 µM
same,GI,MDA-MB-435,1.73 µM
same,GI,SF-268,1.87 µM
same,GI,CAKI-1,1.65 µM
same,GI,EKVX,1.6 µM
same,Activity,Quadruplex DNA [4],Active
same,ΔTm,Quadruplex DNA [5],11 °C
same,GI,SR,0.704 µM
same,GI,MOLT-4,0.383 µM
same,GI,NCI-H226,2.46 µM
same,GI,NCI-H460,1.08 µM
same,GI,KM12,2 µM
same,GI,OVCAR-5,1.92 µM
same,GI,IGROV-1,1.53 µM
same,GI,UACC-62,1.8 µM
same,GI,T47D,2 µM
same,GI,SF-295,1.82 µM
same,GI,BT-549,2.24 µM
same,GI,PC-3,1.34 µM
same,GI,OVCAR-4,1.84 µM
same,GI,A498,1.12 µM
same,GI,786-0,1.59 µM
same,GI,SK-MEL-5,1.74 µM
same,GI,HCT-116 [6],0.659 µM
same,GI,LOX IMVI,1.3 µM
same,ΔTm,Quadruplex DNA [7],> 20 °C
same,inhibition,[8],Active
CCN(CC)CCn1c2ccc(O)cc2c2sc3cc(OC)ccc3c(=O)c21,ΔTm,Quadruplex DNA [1],7.5 °C
same,GI,ACHN,1.13 µM
same,GI,A549,1.63 µM
same,Activity,HCT-116 [2],Active
same,GI,SK-MEL-2,9.15 µM
same,GI,OVCAR-8,2.1 µM
same,GI,RXF 393,1.31 µM
same,GI,UO-31,1.9 µM
same,GI,SNB-75,2.39 µM
same,Activity,HCT-116 [3],Active
same,GI,SK-MEL-28,1.8 µM
same,GI,UACC-257,2.1 µM
same,GI,NCI/ADR-RES,1.23 µM
same,GI,OVCAR-3,2.19 µM
same,GI,NCI-H23,1.56 µM
same,GI,SN12C,5.83 µM
same,GI,Malme-3M,1.87 µM
same,GI,MCF7,1.18 µM
same,GI,HCT-15,1.2 µM
same,GI,COLO 205,3.08 µM
same,GI,MDA-MB-435,1.64 µM
same,GI,SF-268,7.34 µM
same,GI,CAKI-1,3.73 µM
same,GI,EKVX,1.67 µM
same,Activity,Quadruplex DNA [4],Active
same,ΔTm,Quadruplex DNA [5],9.6 °C
same,GI,SR,1.11 µM
same,GI,MOLT-4,0.389 µM
same,GI,NCI-H226,10.4 µM
same,GI,NCI-H460,1.22 µM
same,GI,KM12,1.84 µM
same,GI,OVCAR-5,2.22 µM
same,GI,IGROV-1,1.59 µM
same,GI,UACC-62,1.89 µM
same,GI,T47D,14.2 µM
same,GI,SF-295,5.35 µM
same,GI,BT-549,6.08 µM
same,GI,PC-3,1.82 µM
same,GI,OVCAR-4,1.81 µM
same,GI,A498,3.08 µM
same,GI,786-0,1.39 µM
same,GI,SK-MEL-5,1.74 µM
same,GI,HCT-116 [6],1.07 µM
same,GI,LOX IMVI,1.21 µM
same,ΔTm,Quadruplex DNA [7],> 20 °C
same,inhibition,[8],Active
